According to patent US20200077656A1, “Use of an Acyclic Picolinamide Compound as a Fungicide for Control of Phytopathogenic Fungi in Row Crops” (priority 2017, published 2020):
Where two headings read alike, the source gives them in different places.

Legend:
[1] = tested on: Ramularia collo-cygni; test: Field assessment of Ramularia collo-cygni (RAMUCC) on barley; format: in vivo; conditions: 5% EC + Trycol adjuvant, winter barley
Procedure: Field Assessment of Ramularia […]) on Barley: A fungicidal treatment containing a 5% EC formulation of compound I, tanked mixed with an adjuvant (Trycol, 50% w/w at 0.1% v/v), was sprayed on barley plants (winter barley; Cassia variety) at BBCH 33 growth stage of winter barley (5% infection on L5 at application), under natural infection of Ramularia leaf spot of barley. […] Disease severity was recorded as a percentage of visual diseased foliage on whole plot. Ramularia leaf spot of barley infection was assessed three times at 7, 14 and 21 days after the last application. The disease infection was recorded following EPPO PP1/26 guideline prescriptions. Area under the disease progress curve (AUDPC) was calculated for each plot using the sets of recorded severity data. Relative AUDPC (% control based on AUDPC) was calculated as percent of the nontreated control.

[2] = tested on: soybean (GLYMX, Glycine max); test: Yield of soybean in Cercospora sojina field trials; format: in vivo; conditions: harvest at crop maturity
[3] = tested on: Pyrenophora teres; test: Field assessment of Pyrenophora teres (PYRNTE) on barley, Trial 2 (natural infection); format: in vivo; conditions: EC + Trycol; for % Control (AUDPC) of PYRNTE, Trial 2: barley
Procedure: Compound I was applied at a water volume of 200 L/ha under natural infection of Pyrenophora teres. Disease severity was recorded as a percentage of visual diseased foliage on whole plot. Net blotch of barley infection was assessed three times at 7, 14 and 21 days after the last application. The disease infection was recorded following EPPO PP1/26 guideline prescriptions. Area under the disease progress curve (AUDPC) was calculated for each plot using the sets of recorded severity data. Relative AUDPC (% control based on AUDPC) was calculated as percent of the nontreated control.

[4] = tested on: Sclerotium rolfsii; test: Field assessment of Sclerotium rolfsii (SCLORO) in peanut, percent stem incidence; conditions: 42 DAAD, untreated 41.8
Procedure: Four applications, at two week intervals were made to each trial, starting at growth stage BBCH66 and continuing through BBCH84. The experimental plots were conducted with natural infestation of the pathogen. The treatment was part of an experimental trial designed as a randomized complete block (RCB) with four replications and a plot of approximately 6×40 ft.
Percent stem incidence (percent of stems with any disease, based on 80 stems counted per plot) was assessed at 42 days after application D (42 DAAD).

[5] = tested on: Magnaporthe grisea; format: in vivo; conditions: two applications, EC + Trycol adjuvant, rice
[6] = tested on: peanut (ARHHY, Arachis hypogaea); test: Yield of peanut in Sclerotium rolfsii field trials; format: in vivo; conditions: 49 DAAD
[7] = tested on: Cercospora arachidicola; test: Field assessment of Cercospora arachidicola (MYCOAR) in peanut; format: in vivo; conditions: Table 8, early leaf spot of peanut, AUDPC based
[8] = tested on: Cercospora sojina; test: Field assessment of Cercospora sojina (CERSO) in soybean; format: in vivo; conditions: for Percent Visual Severity of CERCSO: soybean upper canopy, untreated 8.6; for CERCSO Percent of Untreated (AUDPC): leaftop severity
[9] = tested on: Cercospora beticola; test: Field assessment of Cercospora beticola (CERCBE) on sugar beet, two trials averaged; format: in vivo
Procedure: Field Assessment of Cercospora beticola (CERCBE) on Sugar Beet: Assessment of compound I of CERCBE on sugar beet was performed in two separate field trials. In the first trial, a fungicidal treatment containing an EC and SC formulations of compound I by itself and in combination with an adjuvant (Phase II, 50% w/w at 0.5% v/v) was sprayed on sugar beet plants ([…] variety) six times during the course of 7 weeks at the 18-39 growth stages of sugar beet. […] In the second trial, a fungicidal treatment containing an EC and SC formulations of compound I by itself and in combination with an adjuvant (Phase II, 50% w/w at 0.5% v/v) was sprayed on sugar beet plants (BEAVA) five times during the course of 4 weeks at the 36-49 growth stages of sugar beet. […] Disease severity was recorded as a percentage of visual diseased foliage on whole plot. Cercospora leaf spot infection was assessed three times at 7, 14 and 21 days after the last application. The disease infection was recorded following EPPO PP 1/1 (4) guideline prescriptions. Area under the disease progress curve (AUDPC) was calculated for each plot using the sets of recorded severity data. Relative AUDPC (% control based on AUDPC) was calculated as percent of the nontreated control and averaged over both field trials.

[10] = 50 g/ha, Agnique BP420 200 mL/ha
[11] = 75 g/ha, Agnique BP420 300 mL/ha
[12] = 100 g/ha, Adsee C80W 80% 250 g/ha
[13] = 100 g/ha, Agnique BP420 400 mL/ha
[14] = 150 g/ha, Agnique BP420 600 mL/ha

COc1ccnc(C(=O)N[C@@H](C)C(=O)O[C@@H](C)C(c2ccc(F)cc2)c2ccc(F)cc2)c1OC(C)=O [Compound I, (S)-1,1-bis(4-fluorophenyl)propan-2-yl (3-acetoxy-4-methoxypicolinoyl)-L-alaninate]
Disease control of RAMUCC, percent control based on AUDPC ([1]; 75 g ai/ha): C (26-50)
Disease control of RAMUCC, percent control based on AUDPC ([1]; 100 g ai/ha): C (26-50)
Disease control of RAMUCC, percent control based on AUDPC ([1]; 150 g ai/ha): B (51-75)
GLXMA Yield Percent of Untreated [2, 10]: 117.0%
GLXMA Yield Percent of Untreated ([2]; 50 g/ha, MSO 100 g/ha): 108.0%
GLXMA Yield Percent of Untreated [2, 11]: 119.2%
GLXMA Yield Percent of Untreated ([2]; 75 g/ha, MSO 150 g/ha): 114.6%
GLXMA Yield Percent of Untreated [2, 12]: 115.3%
GLXMA Yield Percent of Untreated [2, 13]: 117.6%
GLXMA Yield Percent of Untreated ([2]; 100 g/ha, MSO 200 g/ha): 113.4%
GLXMA Yield Percent of Untreated [2, 14]: 114.8%
GLXMA Yield Percent of Untreated ([2]; 150 g/ha, MSO 300 g/ha): 112.9%
% Control (AUDPC) of PYRNTE, Trial 2 ([3]; 50 g ai/ha): B (51-75)
% Control (AUDPC) of PYRNTE, Trial 2 ([3]; 100 g ai/ha): B (51-75)
% Control (AUDPC) of PYRNTE, Trial 2 ([3]; 150 g ai/ha): B (51-75)
control of Pyrenophora teres on barley (in words) ([3]; replicated field trial, 50, 100 and 150 g ai/ha, natural infection): useful levels of control
Calc Percent Stem Incidence of SCLORO [4, 10]: 41.6%
Calc Percent Stem Incidence of SCLORO ([4]; 50 g/ha, MSO 100 g/ha): 39.1%
Calc Percent Stem Incidence of SCLORO [4, 11]: 33.2%
Calc Percent Stem Incidence of SCLORO ([4]; 75 g/ha, MSO 150 g/ha): 33.0%
Calc Percent Stem Incidence of SCLORO [4, 13]: 27.9%
Calc Percent Stem Incidence of SCLORO ([4]; 100 g/ha, MSO 200 g/ha): 28.2%
Calc Percent Stem Incidence of SCLORO [4, 14]: 29.6%
Calc Percent Stem Incidence of SCLORO ([4]; 150 g/ha, MSO 300 g/ha): 24.7%
Disease control of PYRIOR, percent control based on AUDPC ([5]; 50 g ai/ha): C (26-50)
Disease control of PYRIOR, percent control based on AUDPC ([5]; 100 g ai/ha): C (26-50)
Disease control of PYRIOR, percent control based on AUDPC ([5]; 150 g ai/ha): B (51-75)
Disease control of PYRIOR, percent control based on AUDPC ([5]; 200 g ai/ha): B (51-75)
ARHHY Yield Percent of Untreated [6, 10]: 96.4%
ARHHY Yield Percent of Untreated ([6]; 50 g/ha, MSO 100 g/ha): 104.9%
ARHHY Yield Percent of Untreated [6, 11]: 113.9%
ARHHY Yield Percent of Untreated ([6]; 75 g/ha, MSO 150 g/ha): 112.8%
ARHHY Yield Percent of Untreated [6, 12]: 122.0%
ARHHY Yield Percent of Untreated [6, 13]: 118.0%
ARHHY Yield Percent of Untreated ([6]; 100 g/ha, MSO 200 g/ha): 115.7%
ARHHY Yield Percent of Untreated [6, 14]: 130.0%
ARHHY Yield Percent of Untreated ([6]; 150 g/ha, MSO 300 g/ha): 131.5%
Calc Percent Control of MYCOAR [7, 10]: 31.5%
Calc Percent Control of MYCOAR ([7]; 50 g/ha, MSO 100 g/ha): 32.0%
Calc Percent Control of MYCOAR [7, 11]: 35.6%
Calc Percent Control of MYCOAR ([7]; 75 g/ha, MSO 150 g/ha): 36.3%
Calc Percent Control of MYCOAR [7, 12]: 40.3%
Calc Percent Control of MYCOAR [7, 13]: 44.8%
Calc Percent Control of MYCOAR ([7]; 100 g/ha, MSO 200 g/ha): 44.4%
Calc Percent Control of MYCOAR [7, 14]: 57.7%
Calc Percent Control of MYCOAR ([7]; 150 g/ha, MSO 300 g/ha): 52.3%
Percent Visual Severity of CERCSO [8, 10]: 5.6%
Percent Visual Severity of CERCSO ([8]; 50 g/ha, MSO 100 g/ha): 6.5%
Percent Visual Severity of CERCSO [8, 11]: 4.2%
Percent Visual Severity of CERCSO ([8]; 75 g/ha, MSO 150 g/ha): 3.6%
Percent Visual Severity of CERCSO [8, 12]: 4.5%
Percent Visual Severity of CERCSO [8, 13]: 4.5%
Percent Visual Severity of CERCSO ([8]; 100 g/ha, MSO 200 g/ha): 4.3%
Percent Visual Severity of CERCSO [8, 14]: 3.3%
Percent Visual Severity of CERCSO ([8]; 150 g/ha, MSO 300 g/ha): 3.3%
CERCSO Percent of Untreated (AUDPC) [8, 10]: 62.0%
CERCSO Percent of Untreated (AUDPC) ([8]; 50 g/ha, MSO 100 g/ha): 73.8%
CERCSO Percent of Untreated (AUDPC) [8, 11]: 63.1%
CERCSO Percent of Untreated (AUDPC) ([8]; 75 g/ha, MSO 150 g/ha): 62.9%
CERCSO Percent of Untreated (AUDPC) [8, 12]: 58.3%
CERCSO Percent of Untreated (AUDPC) [8, 13]: 61.6%
CERCSO Percent of Untreated (AUDPC) ([8]; 100 g/ha, MSO 200 g/ha): 52.4%
CERCSO Percent of Untreated (AUDPC) [8, 14]: 48.4%
CERCSO Percent of Untreated (AUDPC) ([8]; 150 g/ha, MSO 300 g/ha): 53.5%
% Control (AUDPC) of CERCBE ([9]; EC, 75 g ai/ha, no adjuvant): B (51-75)
% Control (AUDPC) of CERCBE ([9]; EC, 75 g ai/ha, with Phase II adjuvant): B (51-75)
% Control (AUDPC) of CERCBE ([9]; EC, 150 g ai/ha, no adjuvant): A (76-100)
% Control (AUDPC) of CERCBE ([9]; SC, 75 g ai/ha, no adjuvant): B (51-75)
% Control (AUDPC) of CERCBE ([9]; SC, 75 g ai/ha, with Phase II adjuvant): B (51-75)
% Control (AUDPC) of CERCBE ([9]; SC, 150 g ai/ha, no adjuvant): A (76-100)
